Measurements taken from article PMC8201324, “Pyrazoles and Pyrazolines as Anti-Inflammatory Agents” (Molecules, 2021).

What was measured:
[1] = Experimental determination of lipophilicity as RM values (RP-TLC); type: physicochemical; parameters: key: RM = log[(1/Rf) − 1] from RP-TLC Rf values; details: methanol/water 70/30 v/v, 24 °C, average of at least five measurements
Text: Lipophilicity is the key physicochemical parameter of a bioactive molecule, linking solubility, ligand-target binding interactions and membrane permeability with absorption, distribution, bioavailability, metabolism and elimination (ADME) and toxicological effects, crucial for its biological activity. The reverse phase thin layer chromatography (RPTLC) method was used for the experimental determination of the lipophilic character of the synthesized compounds as RM values (Table 2). Lipophilicity was also theoretically calculated as clog P values, using the CLOGP Program of Biobyte Corp. and as LPSP-lipophilicity values through Spartan v.5.1.3. (Wavefunction Inc., Irvine, CA, USA). According to the calculated clog P values, as well as LPSP, the most lipophilic compounds were the compounds 2c, 2d, 2e and 2g. This observation was supported by the RM values (with the exception of 2g).
Lipophilicity as RM values was determined through reversed phase TLC (RP-TLC) on silica gel plates impregnated with 5% (v/v) liquid paraffin in light petroleum ether. Methanol/water mixture (70/30, v/v) was used a mobile phase. Closed chromatography tanks saturated with the mobile phase at 24 °C were used for the development of the plates while the spots were detected under UV light. For the determination of RM values, five individual measurements of Rf values were recorded, and the RM values were derived from the equation RM = log [(1/Rf) − 1] [42, 43] (Table 2).

[2] = Reducing activity of the stable radical DPPH; type: biochemical
Experimental: The novel derivatives were studied for their interaction with the stable 2,2-diphenyl-1-picrylhydrazyl free radical (DPPH) at concentrations 50 µM, 100 µM, 200 µM and after 20 and 60 min (Table 3). This assay is based on the reduction of the DPPH by transferring an electron from the antioxidant. […] However, it seems that the interaction is dependent on the concentration and on the reaction time. From this point of view, it can be concluded that the acetyl pyrazolyl derivatives 2c and 2f seem to present the highest scavenging activities. An increase in concentration favors the activity. […] As for compounds 2a, 2b, 2c and 2f, activity seems to be time dependent at 200 µM. […] The presence of a chlorine group in 2e pyrazoline leads to an activity increase (compared to 2d) in concentration 200 µM. The acetyl derivative 2f presents better activity than 2b at 200 µM.
(§1) A stock solution (1% DMSO in the appropriate buffer with the tested compound diluted under sonication) was prepared for the in vitro assays from which several dilutions were made with the appropriate buffer. The in vitro experiments were performed at least in triplicate, and the standard deviation of absorbance was less than 10% of the mean.
A stock solution (10 mM) of the novel derivatives in DMSO was prepared and an equal volume of it was added to a solution of DPPH in absolute ethanol to reach final concentrations 50, 100 µM and 200 µM. The absorbance was recorded at 517 nm, after 20 and 60 min at room temperature (Table 3).

[3] = Inhibition of linoleic acid lipid peroxidation (AAPH); type: biochemical
Experimental: For the lipid peroxidation study, 2,2′-azobis(2-amidinopropane) hydrochloride (AAPH) was used for the generation of peroxyl radicals. The generation of the conjugated diene hydroperoxide derived from the oxidation of sodium linoleate in an aqueous solution was recorded at 234 nm. The compounds presented high anti-lipid peroxidation activity (78–100%) (Table 4). Pyrazolines 2a and 2b present lower anti-lipid peroxidation activity (89% and 78% respectively).
as §1
AAPH was used as free radical initiator of alkylperoxyl radicals. The ability of the compounds to prevent the oxidation of linoleic acid sodium salt from alkylperoxyl radicals was recorded at 234 nm. Trolox was used as reference (93%) (Table 4).

soybean lipoxygenase = biological target: T1, soybean lipoxygenase (Glycine max, UniProt P08170); assay: Soybean lipoxygenase inhibition study; type: biochemical; details: sodium linoleate 0.1 mM; for LOX % Inhibition at 100 µM / inhibition at 100 µM: compound 100 µM; for inhibition at 100 µM: read-out: LOX % Inhibition at 100 µM
T1 construct: purchased Sigma Chemical, Co
T1 sequence (P08170 1-839): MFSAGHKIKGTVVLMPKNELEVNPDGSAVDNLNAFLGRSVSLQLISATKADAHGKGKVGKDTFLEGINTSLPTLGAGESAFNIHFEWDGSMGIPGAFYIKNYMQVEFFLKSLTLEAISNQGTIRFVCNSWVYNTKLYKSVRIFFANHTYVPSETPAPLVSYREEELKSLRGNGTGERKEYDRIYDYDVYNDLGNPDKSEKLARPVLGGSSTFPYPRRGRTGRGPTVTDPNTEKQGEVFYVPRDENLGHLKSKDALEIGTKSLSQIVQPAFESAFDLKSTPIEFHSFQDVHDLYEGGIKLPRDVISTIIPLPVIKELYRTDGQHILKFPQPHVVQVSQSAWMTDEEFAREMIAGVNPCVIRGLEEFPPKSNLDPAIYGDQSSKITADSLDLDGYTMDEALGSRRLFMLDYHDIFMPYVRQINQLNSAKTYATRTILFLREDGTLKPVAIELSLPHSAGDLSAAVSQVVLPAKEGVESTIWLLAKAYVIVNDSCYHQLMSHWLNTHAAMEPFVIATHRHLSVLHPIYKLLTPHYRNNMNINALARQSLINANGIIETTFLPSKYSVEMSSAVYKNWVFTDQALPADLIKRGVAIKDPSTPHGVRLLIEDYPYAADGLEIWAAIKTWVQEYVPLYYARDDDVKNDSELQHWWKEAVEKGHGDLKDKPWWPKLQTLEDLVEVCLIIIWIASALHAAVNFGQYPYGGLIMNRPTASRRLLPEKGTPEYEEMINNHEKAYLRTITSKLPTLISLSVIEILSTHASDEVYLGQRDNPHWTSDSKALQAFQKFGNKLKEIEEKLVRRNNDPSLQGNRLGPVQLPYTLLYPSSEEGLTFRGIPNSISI
Experimental: Lipoxygenase (LOX) is the key enzyme implicated in membrane lipid peroxidation by forming hydroperoxides, thus it is considered a target for inflammatory diseases. […] For the in vitro study, soybean lipoxygenase was used, based on the homology to mammalian lipoxygenase. […] A stock solution (1% DMSO in the appropriate buffer with the tested compound diluted under sonication) was prepared for the in vitro assays from which several dilutions were made with the appropriate buffer. […] The stock solutions of the compounds were incubated with sodium linoleate (0.1 mM) and 0.2 mL of soybean lipoxygenase solution (1/9 × 10^-4 w/v in saline) at room temperature. In vitro test was performed as previously published.

Row | Compound | RM (±SD) [1] | RA% 50 µM 20 min [2] | RA% 50 µM 60 min [2] | RA% 100 µM 20 min [2] | RA% 100 µM 60 min [2] | RA% 200 µM 20 min [2] | RA% 200 µM 60 min [2] | AAPH% 100 µM (anti-lipid peroxidation) [3] | LOX % Inhibition at 100 µM (soybean lipoxygenase) | inhibition at 100 µM (soybean lipoxygenase) | melting point | IC50 (soybean lipoxygenase; soybean lipoxygenase, read-out: LOX IC50)
1 | 1-(5-(4-((4-bromobenzyl)oxy)phenyl)-3-(thiophen-2-yl)-1H-pyrazol-1-yl)ethan-1-one [Compound 2c] | 0.68 ± 0.05 | 17.1% | 22.4% | 41.9% | 44.0% | 49.4% | 59.2% | 100% | 42% | – | – | –
2 | 5-(4-((4-bromobenzyl)oxy)phenyl)-3-(4-chlorophenyl)-4,5-dihydro-1H-pyrazole [Compound 2e] | 0.87 ± 0.07 | 9.5% | 13.0% | 14.8% | 17.8% | 25.6% | 30.1% | 98% | 16% | – | – | –
3 | c1ccc(C2=NNC(c3cccc4ccccc34)C2)cc1 (stereo not shown) [Compound 2a, 5-(naphthalen-1-yl)-3-phenyl-4,5-dihydro-1H-pyrazole] | 0.22 ± 0.2 | 15.0% | 20.0% | 22.9% | 32.0% | 37.2% | 49.3% | 89% | – | 35% | 45 to 47 °C | –
4 | Clc1ccc(C2=NNC(c3ccc4[nH]ccc4c3)C2)cc1 (stereo not shown) [Compound 2b, 5-(3-(4-chlorophenyl)-4,5-dihydro-1H-pyrazol-5-yl)-1H-indole] | 0.23 ± 0.03 | 19.3% | 25.0% | 26.1% | 33.6% | 34.9% | 44.4% | 78% | – | 17% | 96 to 98 °C | –
5 | Brc1ccc(COc2ccc(C3CC(c4ccccc4)=NN3)cc2)cc1 (stereo not shown) [Compound 2d, 5-(4-((4-bromobenzyl)oxy)phenyl)-3-phenyl-4,5-dihydro-1H-pyrazole] | 0.72 ± 0.06 | 6.3% | 9.5% | 19.4% | 37.4% | 9.4% | 14.9% | 96% | – | 13% | 98 to 100 °C | –
6 | CC(=O)n1nc(-c2ccccc2)cc1-c1ccc2[nH]ccc2c1 [Compound 2f, 1-(5-(1H-indol-5-yl)-3-phenyl-1H-pyrazol-1-yl)ethan-1-one] | −0.07 ± 0.01 | 21.0% | 24.7% | 34.7% | 38.8% | 50.1% | 59.5% | 95% | – | 3% | 65 to 66 °C | –
7 | CC(=O)n1nc(-c2ccc(Cl)cc2)cc1-c1cccc2ccccc12 [Compound 2g, 1-(3-(4-chlorophenyl)-5-(naphthalen-1-yl)-1H-pyrazol-1-yl)ethan-1-one] | −0.59 ± 0.05 | 9.0% | 12.7% | 11.2% | 13.6% | 22.5% | 27.7% | 100% | – | 60% | 53 to 55 °C | 80 µM
8 | CC(=O)n1nc(-c2ccccc2)cc1-c1cccc(Oc2ccccc2)c1 [Compound 2h, 1-(5-(3-phenoxyphenyl)-3-phenyl-1H-pyrazol-1-yl)ethan-1-one] | 0.41 ± 0.02 | 6.7% | 9.5% | 7.8% | 9.6% | 17.2% | 20.9% | 97% | – | 26% | 44 to 46 °C | –
